For five molecules, melting point results are on record in US7544707B2, “Bicyclic derivatives as PPAR modulators” (Eli Lilly and Company, priority 2003, dated 2009).

As a reminder, the melting point is the temperature of the solid-liquid transition.

`CCc1cc(SCc2ccc3cn(-c4ccc(C(F)(F)F)cc4)nc3c2)ccc1OCC(=O)O` [Example 21, 2-Ethyl-4-[2-(4-trifluoromethylphenyl)-2H-indazol-6-ylmethylsulfanyl]phenoxyacetic Acid] displayed a melting point of 119 to 121 °C.

`Cc1cc(SCc2cccc3c2cnn3-c2ccc(C(F)(F)F)cc2)ccc1OC(C)(C)C(=O)O` [Example 78, 2-Methyl-2-{2-methyl-4-[1-(4-trifluoromethylphenyl)-1H-indazol-4-ylmethylsufanyl]phenoxy}propionic Acid] displayed a melting point of 62 to 66 °C.

With `CC(C)(Oc1ccc(SCc2cccc3cn(-c4ccc(C(F)(F)F)cc4)nc23)cc1)C(=O)O` [Example 36, 2-Methyl-2-{4-[2-(4-trifluoromethylphenyl)-2H-indazol-7-ylmethylsulfanyl]phenoxy}propionic Acid], the melting point is 140 to 142 °C.

`O=C(O)Cc1csc2cc(SCc3ccc4cn(-c5ccc(C(F)(F)F)cc5)nc4c3)ccc12` [Example 23, 6-[2-(4-Trifluoromethylphenyl)-2H-indazol-6-ylmethylsulfanyl]benzo[b]thiophen-3ylacetic Acid] displayed a melting point of 194 to 196 °C.

In the case of `CCc1cc(SC(C)c2cccc3cn(-c4ccc(C(F)(F)F)cc4)nc23)ccc1OCC(=O)O` (racemic) [Example 10, (+/−)-2-Ethyl-4-{1-[2-(4-trifluoromethylphenyl)-2H-indazol-7-yl]ethylsulfanyl}phenoxyacetic Acid], the melting point was in the range of 65 to 67 °C.
